In ChEMBL document CHEMBL1147459, “Thienopyridine and benzofuran derivatives as potent anti-tumor agents possessing different structure-activity relationships” (Bioorg Med Chem Lett, 2004):
Converted amounts (≈) assume the structure as drawn.

test system: WI-38 VA13; assay: Effective concentration required to cause cytotoxicity to tumorigenic cell line WI-38 VA-13 subline 2RA; type: functional, cell-based; conditions: Homo sapiens

| SMILES | EC50 [µg/mL] |
| --- | --- |
| CNc1c(C(=O)c2ccccc2)sc2nc(-c3cccs3)ccc12 | 0.42 (≈ 1.2 µM) |
| COc1ccc(OC)c(C(=O)c2sc3nc(-c4cccs4)ccc3c2N)c1 | 0.079 (≈ 0.199 µM) |
| COc1ccccc1C(=O)c1sc2nc(-c3cccs3)ccc2c1N | 0.059 (≈ 0.161 µM) |
| CCOC(=O)c1sc2nc(-c3cccs3)ccc2c1N | > 4 |
| Nc1c(C(=O)c2ccc(Br)cc2)sc2nc(-c3cccs3)ccc12 | 2.8 (≈ 6.74 µM) |
| Nc1c(C(=O)c2ccc(F)cc2)sc2nc(-c3cccs3)ccc12 | 1.8 (≈ 5.08 µM) |
| Nc1c(C(=O)c2ccc(F)cc2F)sc2nc(-c3cccs3)ccc12 | 2.3 (≈ 6.18 µM) |
| COc1cccc(C(=O)c2sc3nc(-c4cccs4)ccc3c2N)c1 | 0.03 (≈ 0.0819 µM) |
| Nc1c(C(=O)c2cccc([N+](=O)[O-])c2)sc2nc(-c3cccs3)ccc12 | 0.15 (≈ 0.393 µM) |
| CCOC(=O)c1oc2cc(-c3ccccc3)cc(OC)c2c1C | > 4 |
| CN(C)c1c(C(=O)c2ccccc2)sc2nc(-c3cccs3)ccc12 | > 4 |
| CC(=O)c1sc2nc(-c3cccs3)ccc2c1N | 2.7 (≈ 9.84 µM) |
| CC(C)(C)C(=O)c1sc2nc(-c3cccs3)ccc2c1N | 0.57 (≈ 1.8 µM) |
| Nc1c(C(=O)c2ccccc2)sc2nc(-c3cccs3)ccc12 | 0.09 (≈ 0.268 µM) |
| Nc1c(C(=O)c2cccc(Br)c2)sc2nc(-c3cccs3)ccc12 | 0.5 (≈ 1.2 µM) |
| COc1ccc(C(=O)c2sc3nc(-c4cccs4)ccc3c2N)c(OC)c1 | 0.52 (≈ 1.31 µM) |
| CCC(=O)c1sc2nc(-c3cccs3)ccc2c1N | 0.89 (≈ 3.09 µM) |
| Nc1c(C(=O)c2ccc(F)c(F)c2)sc2nc(-c3cccs3)ccc12 | > 4 |
| COc1ccc(C(=O)c2sc3nc(-c4cccs4)ccc3c2N)cc1 | 0.77 (≈ 2.1 µM) |
| Nc1c(C(=O)c2cccc(F)c2)sc2nc(-c3cccs3)ccc12 | 0.025 (≈ 0.0705 µM) |
